Patent US20180071317A1, “USE OF AGENTS THAT ALTER THE PERITUMORAL ENVIRONMENT FOR THE TREATMENT OF CANCER” (SERVICIO ANDALUZ DE SALUD, priority 2011, published 2018)

Experiments:
[1] = system: co-cultures of tumor cells-immune/inflammatory cells (leukocytes); assay: Inhibition/survival in co-cultures of primary human tumor cells and leukocytes; type: cell-based; conditions: SP + antagonist
Procedure: To check that the interaction between the human primary tumor cells with human immune/inflammatory (polymorphonuclear and mononuclear leukocytes) cells, promotes the survival of both types of cells, cultures were carried out with sets of immune/inflammatory cells (mono and polymorphonuclear leukocytes) with tumor cells obtained directly from human primary tumors of patients.
The leukocytes were obtained from centrifugation of blood from the same patient. The leukocytes were cultured in fresh plasma from the same patient, in order to build a model similar to human physiology.

[2] = system: macrophages in co-culture with cells isolated from primary human tumors; assay: Marker expression (IHC) in macrophages co-cultured with primary human tumor cells (colon, breast, ovarian, lung carcinoma, melanoma); type: cell-based; conditions: SP + antagonist;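 also: macrophages came from pleural or peritoneal washings of the patient who also supplied the tumor cells, and both were co-cultured on fresh blood plasma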
Procedure: To check that the interaction of tumor cells obtained directly from primary human immune cell/inflammatory (macrophages) cells, obtained from the patient stimulate secretion of substances by these macrophages recognized as important in survival of both cell types and in the progression of tumor cells, co-cultures were performed on fresh blood plasma, immune cell/inflammatory (macrophages) with tumor cells derived from primary tumors. All obtained from the same patient, to build an experimental model similar to human physiology.
Macrophages were obtained from washing or pleural or peritoneal from the same patient from which the primary tumor cells were obtained in each case.

Row | SMILES | survival/proliferation in co-cultures of tumor cells-leukocytes (in words) [1] | expression of markers in macrophages co-cultured with primary tumor cells (in words) [2]
1 | COc1ccccc1CN[C@H]1C2CCN(CC2)[C@H]1C(c1ccccc1)c1ccccc1 [CP-96345] | same results | same results
2 | CC(=O)N[C@@H](Cc1c[nH]c2ccccc12)C(=O)OCc1cc(C(F)(F)F)cc(C(F)(F)F)c1 [L-732,138, N-Acetyl-L-tryptophan 3,5-bis (trifluoromethyl)benzyl ester] | same results | same results
3 | C[C@@H](O[C@H]1OCCN(Cc2n[nH]nc2CN(C)C)[C@H]1c1ccc(F)cc1)c1cc(C(F)(F)F)cc(C(F)(F)F)c1.Cl [L-760735] | same results | same results
4 | Cl.FC(F)(F)c1cc(CO[C@H]2CCCN[C@H]2c2ccccc2)cc(C(F)(F)F)c1 [L-733,060, (2S,3S)-3-[(3,5-bis (Trifluoromethyl)phenyl)methoxy]-2-phenylpiperidine hydrochloride] | same results | same results
5 | COc1ccccc1CN[C@H]1CCCN[C@H]1c1ccccc1 [CP-100263] | same results | same results
6 | Ic1ccccc1CNC1C2CCN(CC2)C1C(c1ccccc1)c1ccccc1.O=C(O)C(=O)O [L-703,606, cis-2-(Diphenylmethyl)-N-[(2-iodophenyl)methyl]-1-azabicyclo [2.2.2]octan-3-amine oxalate salt] | same results | same results
7 | C#C[C@]1(O)CC[C@H]2[C@@H]3CCC4=Cc5nc6nc7ccccc7n6cc5C[C@]4(C)[C@H]3CC[C@@]21C [WIN 62,577] | same results | same results
8 | C#C[C@]1(O)CC[C@H]2[C@@H]3CC[C@H]4Cc5nc6nc7ccccc7n6cc5C[C@]4(C)[C@H]3CC[C@@]21C [WIN 51708] | same results | same results
